# Reference: ChEMBL document CHEMBL1201862, “PubChem BioAssay data set” (2004)
# Active and inactive are the calls of the source.
# How the values were obtained:
# Genome polyprotein = Genome polyprotein (Hepatitis C virus, UniProt Q2Q167); assay: disruption of hepatitis C core self-association – biochemical, TR-FRET, dose response (AID 2159); parameters: species or system Hepacivirus hominis;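 further: blocks dimerization of HCV core protein measured by TR-FRET between tagged core106 pairs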
# [1] = target: Induced myeloid leukemia cell differentiation protein Mcl-1 (Homo sapiens, UniProt Q07820); type: functional
# Ephrin type-A receptor 4 = Ephrin type-A receptor 4 (Mus musculus, UniProt Q03137); assay: EphA4 ligand-binding antagonists – biochemical, colorimetric, mouse EphA4, primary screen (AID 689); type: functional
# Cytochrome P450 2D6 = Cytochrome P450 2D6 (Homo sapiens, UniProt P10635);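 further: CYP2D6 member of a cytochrome P450 panel assay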
# Protein Tat = Protein Tat (Human immunodeficiency virus type 1 group M subtype B (isolate HXB2)(HIV-1), UniProt P04608); type: functional;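 further: tat binding to TAR RNA read out by fluorescence polarization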
# Caspase-6 = Caspase-6 (Homo sapiens, UniProt P55212); assay: inhibition of CASP6 peptide cleavage – biochemical, VEID-R110 fluorescence, cherry-pick, dose response (AID 720632)
# Kallikrein-7 = Kallikrein-7 (Homo sapiens, UniProt P49862); assay: Fluorescence Intensity-based biochemical primary high throughput dose response assay to identify activators of kallikrein-7 (K7) zymogen.
# cells [2] = assay: cells
# cells [3] = assay: cells; remark: listed apart in the source
# [4] = target: T1, Oxysterols receptor LXR-beta (Homo sapiens, UniProt P55055); type: functional, cell-based;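 further: Cell-based luminescence dose-response assay of agonist activity at LXR, run as a confirmatory counterscreen to a daf-12 agonist screen; HEK293 cells with Gal4-LXR fusion and GAL4-driven luciferase reporter; agonist potency from rising luciferase signal of a Gal4-LXR reporter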
# T1 sequence (P55055 whole entry): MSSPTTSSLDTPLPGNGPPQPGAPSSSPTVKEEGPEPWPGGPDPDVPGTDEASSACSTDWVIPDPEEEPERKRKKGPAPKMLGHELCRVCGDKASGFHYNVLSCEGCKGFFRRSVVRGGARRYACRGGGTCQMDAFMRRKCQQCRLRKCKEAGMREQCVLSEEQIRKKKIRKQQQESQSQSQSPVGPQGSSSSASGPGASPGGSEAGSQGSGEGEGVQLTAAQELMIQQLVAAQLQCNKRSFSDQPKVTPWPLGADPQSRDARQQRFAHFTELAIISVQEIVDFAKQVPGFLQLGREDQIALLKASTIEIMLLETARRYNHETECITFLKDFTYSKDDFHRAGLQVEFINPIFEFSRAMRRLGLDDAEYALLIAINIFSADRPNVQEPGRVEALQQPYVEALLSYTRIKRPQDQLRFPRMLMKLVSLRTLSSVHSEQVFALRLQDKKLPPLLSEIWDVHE
# Streptococcus = assay: GAS UMAA2166 growth inhibition – luminescence, BacTiterGlo, counter-screen for streptokinase expression inhibitor project, dose response (AID 1915); type: functional, organism-based;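 further: potency for reduction of bacterial viability or growth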
# [5] = tested on: Streptococcus sp. 'group A'; assay: Streptococcus pyogenes SK(-)GAS viability under kanamycin – luminescence, BacTiterGlo, confirmation, counter-screen for streptokinase expression inhibitor project, dose response (AID 1900); type: functional, organism-based
# Streptokinase A = target: T2, Streptokinase A (Streptococcus pyogenes serotype M1, UniProt P10520); assay: viability-normalized secreted streptokinase activity reduction – plasminogen activation absorbance, OD405, dose response (AID 1914); type: functional, Streptococcus pyogenes M1 GAS;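 further: secreted streptokinase activity via plasminogen activation per viability signal from cell pellet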
# T2 sequence (P10520 whole entry): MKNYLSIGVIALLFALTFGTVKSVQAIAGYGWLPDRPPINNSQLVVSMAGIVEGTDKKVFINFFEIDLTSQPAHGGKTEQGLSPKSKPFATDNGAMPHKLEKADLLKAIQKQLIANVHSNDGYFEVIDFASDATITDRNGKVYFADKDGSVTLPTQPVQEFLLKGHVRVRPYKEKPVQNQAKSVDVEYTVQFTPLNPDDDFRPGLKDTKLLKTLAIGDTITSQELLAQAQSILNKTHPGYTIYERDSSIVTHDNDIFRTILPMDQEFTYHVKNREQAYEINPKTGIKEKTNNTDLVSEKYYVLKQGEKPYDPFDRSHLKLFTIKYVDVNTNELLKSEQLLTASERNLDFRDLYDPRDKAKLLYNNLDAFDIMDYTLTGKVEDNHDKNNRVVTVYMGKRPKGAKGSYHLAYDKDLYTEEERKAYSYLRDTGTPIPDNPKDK
# [6] = Trypanosoma cruzi growth suppression in host cells – NIH3T3 host cells, beta-gal luminescence, confirmation (AID 2044); type: functional, cell-based;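 further: intracellular parasites grown in NIH/3T3 mouse fibroblasts as host cells; luminescent beta-galactosidase reporter signal from transgenic T. cruzi replicating inside host cells; inhibitors lower the luminescence signal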
# [7] = NIH3T3 cell viability loss – ATP luminescence, mouse fibroblasts, counter-screen, dose response (AID 2010); type: functional, cell-based;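 further: cells exposed to compound for about 90 hours before reading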
# [8] = viability loss in HepG2 hepatoma cells – cell-based, ATP luminescence, cherry-pick, activator set 2, cytotoxicity control, dose response (AID 1053143); type: functional
# [9] = general mammalian cell viability loss – activator set, cherry-pick, cytotoxicity control for miR-122 modulator project, dose response (AID 720690); type: functional, cell-based;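 further: HEK293T human cells scored for general mammalian cytotoxicity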
# [10] = Luminescence Cell-Based Dose Retest to Confirm Inhibitors of Cancer Stem Cells. [Related pubchem assays (depositor defined):AID2717, AID2721]; type: functional; settings: Homo sapiens
# [11] = activation of miR-122 Renilla sensor silencing – cell-based, Huh7 psiCHECK-miR122, Renilla luciferase, cherry-picked, dose response (AID 651956); type: functional;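 further: huh7 hepatoma cells stably carrying a psiCHECK-2 miR-122 sensor plasmid; renilla luciferase signal reporting endogenous miR-122 activity after 48 h compound exposure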
# HT-1080 = assay: HT1080 cell viability loss – fluorescence readout (AID 620); type: functional, cell-based; settings: Homo sapiens
# [12] = target: Luciferin 4-monooxygenase (Photinus pyralis, UniProt P08659); assay: Counter Screen for Luciferase-based Assay Positives. [Related pubchem assays: 620, 618, 411 ]
# [13] = viability loss in HEK293 kidney cells – cell-based, cherry-picks, set 5, cytotoxicity control, dose response (AID 1053117); type: functional
# [14] = reduced cellular PGC1a acetyl-lysine signal – cell-based, cherry-picked samples, dose response (AID 720514); type: functional;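 further: potency may reflect raised or lowered acetylation signal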
# [15] = blockers of FN fibrillogenesis by fibroblasts – AH1F cells, Alexa488-FN fluorescence, cherry-picks, dose response (AID 1035475); type: functional, cell-based
# [16] = toxicity to human hepatoma HepG2 cells – cell-based, cherry-picked samples, cytotoxicity control, dose response (AID 1159577); type: functional
# [17] = P. falciparum Dd2 growth inhibitors, dose response, SYBR Green, cherry-picked samples (AID 1159567); type: functional, cell-based
# [18] = target: Peroxisome proliferator-activated receptor gamma/Nuclear receptor coactivator 2 (Homo sapiens, UniProt P37231); type: functional;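 further: agonist potency for raising coactivator recruitment to the receptor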
# [19] = Luminescence Cell-Based Dose Response HTS to Identify Activators of Luciferase Translation or Activity in H4 […] Cells. [Related pubchem assays: 1829 (Project Summary), 1814 (Primary HTS)]; type: functional
# [20] = target: Peroxisome proliferator-activated receptor gamma/Nuclear receptor coactivator 1 (Homo sapiens, UniProt P37231); type: functional;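 further: agonist potency as compounds enhance coactivator SRC-1 recruitment to PPARgamma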
# cells [21] = settings: A549
# H4 = assay: Luminescence Cell-Based Dose Response HTS to Identify Activators of 5'UTR Stem-Loop Driven Prion Protein mRNA Translation in H4 Neuroglioblastoma Cells. [Related pubchem assays: 1829 (Project Summary), 1814 (Primary HTS)]; type: functional; settings: Homo sapiens
# [22] = Luminescence Cell-Based Dose Confirmation HTS to Identify Activators of 5'UTR Stem-Loop Driven Alpha-Synuclein mRNA Translation in H4 Neuroglioblastoma Cells. [Related pubchem assays: 1829 (Project Summary), 1814 (Primary HTS)]; type: functional
# [23] = target: Peroxisome proliferator-activated receptor gamma/Nuclear receptor coactivator 3 (Homo sapiens, UniProt P37231); type: functional;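 further: agonist potency for raising coactivator recruitment to the receptor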
# Peroxisome proliferator-activated receptor gamma/Nuclear receptor coactivator 3, sequence (P37231 whole entry): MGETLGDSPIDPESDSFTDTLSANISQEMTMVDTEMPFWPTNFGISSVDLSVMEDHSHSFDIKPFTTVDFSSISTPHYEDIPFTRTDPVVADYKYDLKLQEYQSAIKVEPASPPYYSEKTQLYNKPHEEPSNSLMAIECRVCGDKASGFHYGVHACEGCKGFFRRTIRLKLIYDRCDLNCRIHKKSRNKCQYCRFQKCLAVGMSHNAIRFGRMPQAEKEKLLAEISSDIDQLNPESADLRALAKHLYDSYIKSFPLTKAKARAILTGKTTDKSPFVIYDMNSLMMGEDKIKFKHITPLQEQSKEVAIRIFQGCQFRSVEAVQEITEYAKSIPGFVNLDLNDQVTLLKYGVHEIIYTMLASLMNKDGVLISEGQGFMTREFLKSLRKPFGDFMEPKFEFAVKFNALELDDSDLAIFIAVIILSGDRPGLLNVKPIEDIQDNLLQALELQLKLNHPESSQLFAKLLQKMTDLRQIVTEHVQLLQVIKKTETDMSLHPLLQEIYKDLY
# Peroxisome proliferator-activated receptor gamma/Nuclear receptor coactivator 3, sequence (Q9Y6Q9 whole entry, further chain): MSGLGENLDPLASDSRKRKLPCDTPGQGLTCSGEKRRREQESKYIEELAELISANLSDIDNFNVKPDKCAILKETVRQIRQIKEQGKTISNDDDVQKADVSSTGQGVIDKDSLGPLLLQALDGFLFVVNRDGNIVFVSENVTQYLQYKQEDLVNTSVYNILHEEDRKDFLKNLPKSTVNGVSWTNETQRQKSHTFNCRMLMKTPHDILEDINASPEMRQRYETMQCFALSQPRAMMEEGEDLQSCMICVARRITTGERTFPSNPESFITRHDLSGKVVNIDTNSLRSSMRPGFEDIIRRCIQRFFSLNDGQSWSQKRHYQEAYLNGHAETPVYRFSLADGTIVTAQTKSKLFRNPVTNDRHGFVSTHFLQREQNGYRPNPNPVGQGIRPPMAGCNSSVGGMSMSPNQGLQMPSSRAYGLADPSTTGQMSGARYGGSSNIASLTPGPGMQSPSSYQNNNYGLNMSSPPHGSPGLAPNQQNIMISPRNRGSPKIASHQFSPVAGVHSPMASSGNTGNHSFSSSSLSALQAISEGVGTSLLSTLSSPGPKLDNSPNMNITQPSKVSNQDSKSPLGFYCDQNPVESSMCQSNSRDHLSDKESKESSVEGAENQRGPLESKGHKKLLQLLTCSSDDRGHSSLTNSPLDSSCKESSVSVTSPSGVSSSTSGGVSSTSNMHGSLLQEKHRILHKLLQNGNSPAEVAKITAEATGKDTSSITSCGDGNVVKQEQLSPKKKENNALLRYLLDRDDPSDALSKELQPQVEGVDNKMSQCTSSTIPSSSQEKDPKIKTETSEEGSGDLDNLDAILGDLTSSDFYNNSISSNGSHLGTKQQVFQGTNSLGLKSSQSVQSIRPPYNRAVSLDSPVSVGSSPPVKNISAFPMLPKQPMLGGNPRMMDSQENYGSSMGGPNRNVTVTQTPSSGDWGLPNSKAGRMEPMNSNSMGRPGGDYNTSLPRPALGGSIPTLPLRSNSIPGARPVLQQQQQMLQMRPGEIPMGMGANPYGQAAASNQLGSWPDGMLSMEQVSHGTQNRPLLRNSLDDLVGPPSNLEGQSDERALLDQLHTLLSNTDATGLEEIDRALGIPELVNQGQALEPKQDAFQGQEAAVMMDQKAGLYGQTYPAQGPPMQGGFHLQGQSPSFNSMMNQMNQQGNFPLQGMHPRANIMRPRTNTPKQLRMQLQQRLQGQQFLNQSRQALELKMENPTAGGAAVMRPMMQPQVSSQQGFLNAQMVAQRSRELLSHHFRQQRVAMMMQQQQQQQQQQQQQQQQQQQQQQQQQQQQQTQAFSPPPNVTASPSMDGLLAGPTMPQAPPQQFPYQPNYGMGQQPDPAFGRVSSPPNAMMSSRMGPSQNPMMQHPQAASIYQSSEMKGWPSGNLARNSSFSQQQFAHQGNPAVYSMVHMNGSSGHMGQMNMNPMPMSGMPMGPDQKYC
# Protein Tat, sequence (P04608 whole entry): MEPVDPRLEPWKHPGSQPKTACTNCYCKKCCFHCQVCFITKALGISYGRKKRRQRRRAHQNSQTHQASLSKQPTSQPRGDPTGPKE
# Ephrin type-A receptor 4, sequence (Q03137 whole entry): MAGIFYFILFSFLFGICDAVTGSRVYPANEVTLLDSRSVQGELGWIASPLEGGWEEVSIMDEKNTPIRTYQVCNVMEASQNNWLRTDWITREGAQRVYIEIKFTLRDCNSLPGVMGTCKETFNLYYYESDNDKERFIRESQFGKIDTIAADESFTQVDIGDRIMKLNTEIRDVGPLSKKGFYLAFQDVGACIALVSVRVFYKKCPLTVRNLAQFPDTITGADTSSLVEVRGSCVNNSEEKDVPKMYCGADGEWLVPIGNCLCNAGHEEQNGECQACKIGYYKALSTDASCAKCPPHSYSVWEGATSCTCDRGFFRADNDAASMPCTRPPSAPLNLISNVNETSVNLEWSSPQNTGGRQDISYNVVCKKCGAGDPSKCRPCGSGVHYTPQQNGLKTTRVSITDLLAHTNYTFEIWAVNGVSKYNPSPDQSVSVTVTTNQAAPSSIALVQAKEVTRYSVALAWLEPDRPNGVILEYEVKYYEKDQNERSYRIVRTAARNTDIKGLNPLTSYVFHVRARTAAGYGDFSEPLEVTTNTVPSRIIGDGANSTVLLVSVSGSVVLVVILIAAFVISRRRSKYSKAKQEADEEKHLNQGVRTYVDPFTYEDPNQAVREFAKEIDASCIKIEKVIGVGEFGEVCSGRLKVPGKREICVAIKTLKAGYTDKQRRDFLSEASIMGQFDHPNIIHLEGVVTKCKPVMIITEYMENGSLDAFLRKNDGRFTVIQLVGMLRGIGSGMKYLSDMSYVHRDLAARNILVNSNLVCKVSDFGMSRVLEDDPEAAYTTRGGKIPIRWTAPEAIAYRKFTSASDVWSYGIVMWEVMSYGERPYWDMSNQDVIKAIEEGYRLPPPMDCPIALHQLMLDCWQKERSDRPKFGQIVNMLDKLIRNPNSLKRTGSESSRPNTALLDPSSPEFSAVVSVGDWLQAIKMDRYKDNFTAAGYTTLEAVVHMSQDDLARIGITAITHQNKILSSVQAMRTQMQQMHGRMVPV
# Peroxisome proliferator-activated receptor gamma/Nuclear receptor coactivator 2, sequence (P37231 whole entry): as the sequence (P37231 whole entry) above
# Peroxisome proliferator-activated receptor gamma/Nuclear receptor coactivator 2, sequence (Q15596 whole entry, further chain): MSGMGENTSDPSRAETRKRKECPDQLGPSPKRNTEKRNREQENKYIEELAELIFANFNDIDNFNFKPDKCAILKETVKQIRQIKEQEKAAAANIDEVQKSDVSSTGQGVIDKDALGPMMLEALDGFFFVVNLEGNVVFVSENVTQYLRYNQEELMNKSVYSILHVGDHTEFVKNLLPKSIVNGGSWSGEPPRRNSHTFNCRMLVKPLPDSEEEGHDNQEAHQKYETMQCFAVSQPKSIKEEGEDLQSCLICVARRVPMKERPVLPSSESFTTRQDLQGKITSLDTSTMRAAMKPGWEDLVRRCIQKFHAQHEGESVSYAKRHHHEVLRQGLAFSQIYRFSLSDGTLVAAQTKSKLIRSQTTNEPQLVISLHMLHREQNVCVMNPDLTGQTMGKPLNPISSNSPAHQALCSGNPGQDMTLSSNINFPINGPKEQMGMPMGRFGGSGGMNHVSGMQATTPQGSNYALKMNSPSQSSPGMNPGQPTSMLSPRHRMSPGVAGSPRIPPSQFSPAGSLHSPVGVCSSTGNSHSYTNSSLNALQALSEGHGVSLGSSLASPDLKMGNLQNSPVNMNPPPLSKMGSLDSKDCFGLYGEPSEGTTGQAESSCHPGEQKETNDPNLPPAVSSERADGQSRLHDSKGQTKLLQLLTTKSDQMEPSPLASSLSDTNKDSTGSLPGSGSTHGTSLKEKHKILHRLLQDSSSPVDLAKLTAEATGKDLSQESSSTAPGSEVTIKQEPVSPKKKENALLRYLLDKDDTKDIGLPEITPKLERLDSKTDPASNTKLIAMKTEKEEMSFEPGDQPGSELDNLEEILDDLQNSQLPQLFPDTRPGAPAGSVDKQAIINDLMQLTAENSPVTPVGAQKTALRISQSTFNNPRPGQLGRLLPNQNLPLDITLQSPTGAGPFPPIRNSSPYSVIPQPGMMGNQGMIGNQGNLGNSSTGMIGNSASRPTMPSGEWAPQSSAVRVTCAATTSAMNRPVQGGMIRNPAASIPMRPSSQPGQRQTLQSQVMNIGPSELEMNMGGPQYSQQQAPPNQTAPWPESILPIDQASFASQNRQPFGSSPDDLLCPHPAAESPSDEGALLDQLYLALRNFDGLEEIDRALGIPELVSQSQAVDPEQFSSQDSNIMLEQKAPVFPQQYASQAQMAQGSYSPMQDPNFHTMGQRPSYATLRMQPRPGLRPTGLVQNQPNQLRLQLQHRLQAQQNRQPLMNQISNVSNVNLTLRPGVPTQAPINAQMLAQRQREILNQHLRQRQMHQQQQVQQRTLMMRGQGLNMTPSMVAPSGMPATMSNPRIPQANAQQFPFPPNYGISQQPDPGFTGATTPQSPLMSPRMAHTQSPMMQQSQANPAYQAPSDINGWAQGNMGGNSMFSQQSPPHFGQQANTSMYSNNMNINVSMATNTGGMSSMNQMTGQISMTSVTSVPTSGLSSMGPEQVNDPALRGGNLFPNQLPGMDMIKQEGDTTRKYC
smiles,measurement,setting,value
Cc1cccc2c(N=Nc3ccc(S(=O)(=O)Nc4ccc(Cl)cc4)cc3[N+](=O)[O-])c(O)[nH]c12,IC50,Genome polyprotein,> 49.8 µM (not active)
CCNc1ccc(Br)cc(C(=O)/C=C/c2ccc3c(c2)OCO3)c1=O,IC50,[1],2.58 µM (active)
same,IC50,Ephrin type-A receptor 4,5.22 µM (active)
same,AC50,Cytochrome P450 2D6,8.91 µM (inconclusive)
same,IC50,Protein Tat,29.1 µM (inconclusive)
COc1cc(/C=C2\SC(=S)N(Nc3ncc(C(F)(F)F)cc3Cl)C2=O)cc(OC)c1OC,IC50,Ephrin type-A receptor 4,3.57 µM (active)
O=C1CC(C(=O)Nc2ccc(Br)cc2)C2(CCCC2)O1 (configuration not stated),AC50,Caspase-6,6.92 µM (active)
Cc1sc(-c2ccncc2)nc1OC(=O)c1ccc(F)cc1F,EC50,Kallikrein-7,26.5 µM (inactive)
COC(=O)c1ccc(C)c(NC(=O)CCSc2ccccc2)c1,IC50,Protein Tat,65.1 µM (inconclusive)
COc1ccc(C2C(C#N)=C(N)Oc3cc(O)ccc32)cc1Cl (configuration not stated),AC50,cells [2],19.9 µM (active)
Cc1cccc(Nc2nc(-c3ccccc3)cs2)n1,EC50,cells [3],> 67.5 µM (inactive)
same,EC50,[4],> 67.5 µM (inactive)
O=C(Nc1nc2cc3c(cc2s1)OCCO3)c1ccc([N+](=O)[O-])o1,EC50,Streptococcus,> 150 µM (not active)
same,EC50,[5],16.6 µM (active)
same,EC50,Streptokinase A,> 150 µM (not active)
same,EC50,[6],1.78 µM (active)
same,EC50,[7],> 60 µM (not active)
same,AC50,[8],26 µM (active)
COc1ccc(-c2cc(C3CCN(c4ccc(C(C)=O)cc4[N+](=O)[O-])CC3)[nH]n2)cc1,EC50,Streptococcus,24.3 µM (active)
same,AC50,[9],17.6 µM (active)
same,EC50,[5],2.74 µM (active)
same,AC50,[10],2.46 µM (active)
same,EC50,Streptokinase A,> 150 µM (not active)
same,EC50,[6],1.87 µM (active)
same,AC50,[11],23 µM (active)
same,EC50,[7],> 60 µM (not active)
COc1cccc(-c2nc3cc(C)ccc3o2)c1,EC50,HT-1080,> 50 µM (not active)
same,EC50,[12],> 100 µM (not active)
same,EC50,cells [3],> 67.6 µM (inactive)
same,EC50,[4],> 67.6 µM (inactive)
same,AC50,[8],26 µM (active)
C[C@H]1CN([C@@H](C)CO)C(=O)c2cc(-c3ccccc3)cnc2O[C@@H]1CN(C)C(=O)c1cccc(F)c1,AC50,[13],> 52 µM (inactive)
C[C@@H]1CN([C@H](C)CO)S(=O)(=O)c2ccc(C3=CCCCC3)cc2O[C@H]1CN(C)Cc1ccccc1,AC50,[14],11.4 µM (active)
O=C(Nc1ccccc1F)N1C[C@H]2[C@@H](c3ccccc31)[C@H](CO)N2C(=O)C1CC1,AC50,[15],> 70 µM (inactive)
CO[C@@H]1CN(C)C(=O)c2ccc(NC(=O)c3ccc(Oc4ccccc4)cc3)cc2OC[C@@H](C)N(C(C)=O)C[C@H]1C,AC50,[14],24.2 µM (active)
COc1ccc2c3c([nH]c2c1)[C@H](CO)N(S(=O)(=O)c1ccc(C)cc1)CC31CN(Cc2ccccc2)C1,AC50,[16],> 39 µM (inactive)
same,AC50,[17],17.5 µM (active)
Cc1ccc(S(=O)(=O)N[C@H]2CC[C@H](CCn3cc(C4CCCC4)nn3)O[C@@H]2CO)cc1,AC50,[16],> 39 µM (inactive)
same,AC50,[17],13.6 µM (active)
Cc1cccn2c(=O)c3cc(C(=O)NCCN4CCOCC4)c(=N)n(CCc4ccccc4)c3nc12,EC50,[18],> 79.4 µM (not active)
same,AC50,cells [2],1.28 µM (active)
same,EC50,[19],11 µM (active)
same,EC50,[20],> 79.4 µM (not active)
same,AC50,cells [21],31.4 µM (active)
same,EC50,H4,> 120 µM (not active)
same,EC50,[22],> 120 µM (not active)
same,EC50,[23],> 79.4 µM (not active)
